Data as given in US20160278381A1, “Agricultural And Horticultural Fungicidal Composition And Method Of Use Of the Same” (NIHON NOHYAKU CO., LTD., priority 2015, published 2016).

System: Pythium aphanidermatum
Test: Test Example 1: spray on lawn grass sods, inoculation with Pythium aphanidermatum, control value from lesion diameter
Type: in vivo
Conditions: for Control Value (%): alone, lesion diameter seven days after inoculation; for efficacy against Pythium aphanidermatum: treated each alone
Source text: With a hand spray, chemical agents (no spreader added) prepared from commercial formulations at the predetermined concentrations were sprayed with the volume of 0.25 l/m^2. Seven days after the final spraying, with a hole cutter (10 cm in diameter), two sods were cut out, transferred into a greenhouse and inoculated with Pythium aphanidermatum.
For the test plot for the present invention, chemical solutions of tiadinil and chlorothalonil were each prepared, and each of the chemical solutions were blended for use as compositions and combinations.
Seven days after the inoculation, lesion diameters in each treated plots and the untreated plot were measured for calculating the control values for each treated plots using an equation below.
In general, in a case, where two active ingredients given are mixed and treated, if the actual efficacy measured is larger than the Colby's expectation value (E) calculated using the Colby's equation below, wherein value (E) is interpreted to denote an expected control value (%) which is predicted by the combination of the two active ingredients, the function achieved by the combination of the two active ingredients is determined to be synergistic.
(wherein X represents the preventive value (%) of one of the active ingredients and Y represents the preventive value (%) of the other active ingredient.)

| SMILES | Control Value (%) (dose 1.1 fl oz/1,000 ft^2) | efficacy against Pythium aphanidermatum | Control Value (%) (dose 0.15625 fl oz/1,000 ft^2) | Control Value (%) (dose 0.3125 fl oz/1,000 ft^2) | Control Value (%) (dose 0.625 fl oz/1,000 ft^2) | Control Value (%) (dose 1.25 fl oz/1,000 ft^2) |
| --- | --- | --- | --- | --- | --- | --- |
| N#Cc1c(Cl)c(Cl)c(Cl)c(C#N)c1Cl [Chlorothalonil, chlorothalonil] | 22 | did not show sufficient efficacy | – | – | – | – |
| Cc1ccc(NC(=O)c2snnc2C)cc1Cl [Tiadinil, tiadinil] | – | did not show sufficient efficacy | 11 | 11 | 22 | 22 |
